Assay results reported in patent EP0627929B1, “INHIBITORS OF THROMBOSIS” (CORVAS INTERNATIONAL, INC., priority 1992, dated 1993).
pIC50: −log10 of the molar value. Read-outs that look alike come from different tables or passages of the source. Peptide text beside a SMILES is read from it. * marks the point of attachment. Hydrocinnamoyl = O=C(CCc1ccccc1)*

Legend:
[1] = target: human α-thrombin (Homo sapiens, UniProt P00734); experiment: Thrombin assay: inhibition of chromogenic substrate (Pefachrome t-PA) hydrolysis; assay type: biochemical; settings: purified human α-thrombin 0.25 nM, substrate 300 µM, 30 minute incubation, HBSA pH 7.5
Experimental: (§1) In the assays for thrombin, factor Xa and plasmin, a chromogenic synthetic substrate is added to a solution containing test compound and the enzyme of interest and the residual catalytic activity of that enzyme is determined spectrophometrically. The IC50 of compound is determined from the substrate turnover. […] The buffer used for all assays was HBSA (10 mM HEPES, pH 7.5, 150 mM sodium chloride, 0.1% bovine serum albumin). […] Following a 30 minute incubation at ambient temperature, 50 µL of the substrate at the concentrations specified below, was added to the wells yielding a final total volume of 200 µL.

[2] = target: T1, Human factor Xa (Homo sapiens, UniProt P00742); experiment: Factor Xa assay: inhibition of chromogenic substrate (S2765) hydrolysis; assay type: biochemical; settings: human factor Xa 0.5 nM, substrate 250 µM, 30 minute incubation, HBSA pH 7.5
T1 construct: Human factor Xa was prepared from purified human factor X obtained from Enzyme Research Laboratories; purchased Enzyme Research Laboratories
Experimental: as §1, with “μL” for “µL”, “μL. […] Factor Xa catalytic activity was determined using the substrate, S2765 (N-α-benzyloxycarbonyl-[…]-nitroanilide dihydrochloride) which was obtained from Kabi Diagnostica. […] Human factor Xa was prepared from purified human factor X obtained from Enzyme Research Laboratories according to the method described by Bock, P.E. et al., Archives of Biochem. Biophys. […] The enzyme was diluted into HBSA prior to the assay in which the final concentration was 0.5 nM.” for “µL.”

[3] = target: human plasmin (Homo sapiens, UniProt P00747); experiment: Plasmin assay: inhibition of chromogenic substrate (S-2251) hydrolysis; assay type: biochemical; settings: purified human plasmin 1.0 nM, substrate 300 µM, 30 minute incubation, HBSA pH 7.5
Experimental: as §1, with “μL” for “µL”, “μL. […] Plasmin catalytic activity was determined using the chromogenic substrate, […] dihydrochloride], which was obtained from Kabi Diagnostica.” for “µL.”

[4] = test system: FeCl3-induced platelet-dependent arterial thrombosis; settings: rat, [Isolated clot/(Intact segment-Empty segment)] X 100, mean ± S.E.M., control 68.65±3.75

human plasmin, sequence (P00747 581-810 limits assumed): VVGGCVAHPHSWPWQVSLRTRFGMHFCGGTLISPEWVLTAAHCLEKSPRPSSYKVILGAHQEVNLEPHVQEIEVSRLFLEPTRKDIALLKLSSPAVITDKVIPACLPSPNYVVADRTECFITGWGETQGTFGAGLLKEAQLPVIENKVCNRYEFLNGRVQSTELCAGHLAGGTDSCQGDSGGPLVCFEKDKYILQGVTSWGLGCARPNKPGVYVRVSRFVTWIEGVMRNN
human plasmin, sequence (P00747 97-580 partner limits assumed): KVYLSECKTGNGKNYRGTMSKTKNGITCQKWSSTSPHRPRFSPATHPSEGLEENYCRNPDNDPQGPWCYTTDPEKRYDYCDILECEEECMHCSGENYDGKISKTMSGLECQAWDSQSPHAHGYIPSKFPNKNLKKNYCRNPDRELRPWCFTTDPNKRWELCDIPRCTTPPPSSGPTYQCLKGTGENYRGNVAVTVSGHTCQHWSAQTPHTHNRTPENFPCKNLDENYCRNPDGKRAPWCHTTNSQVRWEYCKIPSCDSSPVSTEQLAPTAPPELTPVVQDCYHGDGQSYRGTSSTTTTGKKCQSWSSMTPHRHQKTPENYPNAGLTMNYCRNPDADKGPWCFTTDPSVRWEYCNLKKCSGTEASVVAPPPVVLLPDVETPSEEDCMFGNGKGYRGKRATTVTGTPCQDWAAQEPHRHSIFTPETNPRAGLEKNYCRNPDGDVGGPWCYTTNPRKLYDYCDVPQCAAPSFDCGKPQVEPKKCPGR
T1 sequence (P00742 235-488 limits assumed): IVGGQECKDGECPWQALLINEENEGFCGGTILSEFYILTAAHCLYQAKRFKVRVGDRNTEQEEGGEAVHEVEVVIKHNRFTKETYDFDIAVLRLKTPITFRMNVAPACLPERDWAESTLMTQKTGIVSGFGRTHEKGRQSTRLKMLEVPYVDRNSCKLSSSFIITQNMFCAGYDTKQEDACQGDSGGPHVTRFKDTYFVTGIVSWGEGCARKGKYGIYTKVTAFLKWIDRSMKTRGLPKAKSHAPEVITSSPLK
T1 sequence (P00742 41-179 partner limits assumed): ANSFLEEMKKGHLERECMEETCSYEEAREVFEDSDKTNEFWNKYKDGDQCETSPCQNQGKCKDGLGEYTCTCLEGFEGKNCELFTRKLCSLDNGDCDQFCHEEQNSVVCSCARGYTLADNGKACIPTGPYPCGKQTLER

Compound | pIC50 [1] | pIC50 [2] | pIC50 [3] | Clot Size ([4]; Group1: 25µg/kg/min i.v. infusion) [%] | Clot Size ([4]; Group2: 50µg/kg/min i.v. infusion, p<0.01 vs Control) [%] | Clot Size ([4]; Group3: 100µg/kg/min i.v. infusion, p<0.01 vs Control) [%]
COC(=O)C[C@H](NC(=O)CCc1ccccc1)C(=O)N1CCC[C@H]1C(=O)N[C@H](C=O)CCCNC(=N)N [HCA-Asp(OCH3)-Pro-Arg-al, N-(3-phenylpropanoyl)-L-aspartyl-β-(methyl ester)-L-prolyl-L-argininal] (Hydrocinnamoyl-Asp(OMe)-Pro-Arg-aldehyde) | 7.36 | 6.67 | 6.26 |  |  | 
N-(3-phenylpropanyl)-L-aspartyl-L-prolyl-L-argininal [HCA-Asp-Pro-Arg-al] | 6.63 | 7.04 | 6.49 | 48.38±24.71 | 22.38±21.0 | 3.38±5.44
N-Boc-D-phenylalanyl-L-aspartyl-L-prolyl-L-argininal [Boc-(D-Phe)-Pro-Arg-al, reference compound] | 8.34 |  | 6.00 |  |  | 
CCCC(CCC)C(=O)N[C@@H](CC(=O)O)C(=O)N1CCC[C@H]1C(=O)N[C@H](C=O)CCCNC(=N)N [2PrPent-Asp-Pro-Arg-al, N-(2-propylpentanoyl)-L-aspartyl-L-prolyl-L-argininal] | 8.07 | 6.76 | 6.55 |  |  | 
N=C(N)NCCC[C@@H](C=O)NC(=O)[C@@H]1CCCN1C(=O)[C@H](CC(=O)O)NC(=O)CC1CCCCC1 [ChxAc-Asp-Pro-Arg-al, N-(1-cyclohexylacetyl)-L-aspartyl-L-prolyl-L-argininal] | 7.27 | 6.89 | 6.85 |  |  | 
CCCC(CCC)C(=O)N[C@@H](CC(=O)OC)C(=O)N1CCC[C@H]1C(=O)N[C@H](C=O)CCCNC(=N)N [2PrPent-Asp(OCH3)-Pro-Arg-al] |  | 6.53 | 6.49 |  |  | 

More lines, in order of rising pIC50 [2], values ahead:

pIC50 [1] | pIC50 [2] | pIC50 [3] | Compound | Clot Size ([4]; Group1: 25µg/kg/min i.v. infusion) [%] | Clot Size ([4]; Group2: 50µg/kg/min i.v. infusion, p<0.01 vs Control) [%] | Clot Size ([4]; Group3: 100µg/kg/min i.v. infusion, p<0.01 vs Control) [%]
7.06 | 7.19 | 6.30 | 3-tetrazolyl-2-(4-methylvaleroylamido) propionoyl-L-prolyl-L-argininal [4MeV-Ala(Tzl)-Pro-Arg-al] |  |  | 
6.83 | 7.24 | 6.07 | CC(C)CCC(=O)N[C@@H](CC(=O)O)C(=O)N1CCC[C@H]1C(=O)N[C@H](C=O)CCCNC(=N)N [4MeV-Asp-Pro-Arg-al, N-(4-methylpentanoyl)-L-aspartyl-L-prolyl-L-argininal] |  |  | 
7.28 | 7.51 | 6.08 | N=C(N)NCCC[C@@H](C=O)NC(=O)[C@@H]1CCCN1C(=O)[C@H](CC(=O)O)NC(=O)CCC1CCCCC1 [ChxPA-Asp-Pro-Arg-al, N-(3-cyclohexanepropionyl)-L-aspartyl-L-prolyl-L-argininal] |  |  | 
